Experimental findings from ChEMBL document CHEMBL5465560, “Selectivity Literature for EUbOPEN Chemogenomic Library” (2024) are described below.

Assay [1] addresses T1, Non-receptor tyrosine-protein kinase TNK1 (Homo sapiens) (UniProt Q13470).
T1 sequence (whole entry): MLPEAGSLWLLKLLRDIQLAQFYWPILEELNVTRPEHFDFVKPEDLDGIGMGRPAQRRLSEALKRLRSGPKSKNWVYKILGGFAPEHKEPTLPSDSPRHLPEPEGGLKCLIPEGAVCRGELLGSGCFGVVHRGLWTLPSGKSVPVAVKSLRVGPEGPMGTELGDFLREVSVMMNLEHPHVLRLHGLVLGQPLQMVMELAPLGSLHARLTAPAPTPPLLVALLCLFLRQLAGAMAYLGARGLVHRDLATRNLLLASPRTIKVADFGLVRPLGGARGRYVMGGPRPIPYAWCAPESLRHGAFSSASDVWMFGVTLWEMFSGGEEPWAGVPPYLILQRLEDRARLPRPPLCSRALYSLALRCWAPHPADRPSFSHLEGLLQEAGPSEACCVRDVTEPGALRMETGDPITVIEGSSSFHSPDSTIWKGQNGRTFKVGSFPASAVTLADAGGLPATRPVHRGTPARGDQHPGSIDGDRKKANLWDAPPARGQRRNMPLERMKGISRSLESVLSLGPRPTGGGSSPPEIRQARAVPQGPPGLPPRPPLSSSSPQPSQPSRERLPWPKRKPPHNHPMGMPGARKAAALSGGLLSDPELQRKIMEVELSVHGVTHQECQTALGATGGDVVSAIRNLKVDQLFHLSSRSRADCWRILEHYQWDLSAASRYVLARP
The assay can be described thus: Selectivity interaction (KinomeScan (DiscoverX)) EUB0000607a TNK1. The following applies: at 10 µM.

Assay [2] has as its target T2, Atypical kinase COQ8B, mitochondrial (Homo sapiens) (UniProt Q96D53).
T2 sequence (whole entry): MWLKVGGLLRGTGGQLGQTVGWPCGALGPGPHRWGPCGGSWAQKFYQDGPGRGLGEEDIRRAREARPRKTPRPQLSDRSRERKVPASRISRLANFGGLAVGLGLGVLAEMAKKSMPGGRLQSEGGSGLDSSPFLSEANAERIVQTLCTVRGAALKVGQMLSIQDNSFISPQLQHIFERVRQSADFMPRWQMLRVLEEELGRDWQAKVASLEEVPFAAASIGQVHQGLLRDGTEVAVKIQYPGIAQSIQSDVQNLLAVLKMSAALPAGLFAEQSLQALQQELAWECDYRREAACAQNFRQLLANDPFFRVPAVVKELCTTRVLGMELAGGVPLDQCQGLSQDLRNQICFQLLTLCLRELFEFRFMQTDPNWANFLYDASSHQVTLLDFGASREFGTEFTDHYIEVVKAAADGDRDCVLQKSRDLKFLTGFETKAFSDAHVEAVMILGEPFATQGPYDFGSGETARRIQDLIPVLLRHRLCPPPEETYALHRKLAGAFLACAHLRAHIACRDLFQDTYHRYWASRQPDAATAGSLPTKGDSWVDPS
The assay can be described thus: Selectivity interaction (KinomeScan (DiscoverX)) EUB0000666a ADCK4. Conditions: at 10 µM.

Assay [3] has as its target Serine/threonine-protein kinase SBK1 (Homo sapiens) (UniProt Q52WX2). The assay can be described thus: Selectivity interaction (KinomeScan (DiscoverX)) EUB0000666a SBK1. The following applies: at 10 µM.
Assay [4] addresses T3, Aurora kinase C (Homo sapiens) (UniProt Q9UQB9).
T3 sequence (whole entry): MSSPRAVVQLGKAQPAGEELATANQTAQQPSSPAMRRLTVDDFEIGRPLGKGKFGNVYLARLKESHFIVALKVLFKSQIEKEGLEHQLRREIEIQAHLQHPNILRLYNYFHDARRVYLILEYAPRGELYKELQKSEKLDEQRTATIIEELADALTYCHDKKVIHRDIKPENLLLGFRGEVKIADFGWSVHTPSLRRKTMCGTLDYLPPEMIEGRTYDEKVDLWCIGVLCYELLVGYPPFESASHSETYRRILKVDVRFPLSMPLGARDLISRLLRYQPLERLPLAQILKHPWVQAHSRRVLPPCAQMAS
The assay can be described thus: Selectivity interaction (ActivX KiNativ screen (kinase selectivity in THP-1 cell lysates)) EUB0000639a AURKC. The class given is subcellular. Conditions: lysate.

Assay [5] deals with Cyclin-dependent kinase 8 (Homo sapiens, UniProt P49336). The assay can be described thus: Selectivity interaction (KinomeScan (DiscoverX)) EUB0000045b CDK8.
Chain of Cyclin-dependent kinase 8 (P49336 whole entry): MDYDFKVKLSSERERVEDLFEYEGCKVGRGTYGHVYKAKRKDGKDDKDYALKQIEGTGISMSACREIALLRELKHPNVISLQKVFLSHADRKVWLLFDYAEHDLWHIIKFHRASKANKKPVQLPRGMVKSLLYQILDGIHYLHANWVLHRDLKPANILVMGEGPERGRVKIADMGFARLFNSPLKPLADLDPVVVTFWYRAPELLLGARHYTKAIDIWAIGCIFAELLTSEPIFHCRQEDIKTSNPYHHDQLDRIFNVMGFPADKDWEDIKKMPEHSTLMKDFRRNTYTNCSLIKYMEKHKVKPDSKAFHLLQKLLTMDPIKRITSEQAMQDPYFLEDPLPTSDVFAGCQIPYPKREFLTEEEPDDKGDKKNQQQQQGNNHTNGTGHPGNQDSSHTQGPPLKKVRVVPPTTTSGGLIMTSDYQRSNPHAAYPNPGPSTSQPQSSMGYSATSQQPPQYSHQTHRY
Assay [6] concerns the target BDNF/NT-3 growth factors receptor (Homo sapiens) (UniProt Q16620). The assay can be described thus: Selectivity interaction (KinomeScan (DiscoverX)) EUB0000045b NTRK2.
In assay [7] the target is T4, Ankyrin repeat and protein kinase domain-containing protein 1 (Homo sapiens) (UniProt Q8NFD2).
T4 sequence (whole entry): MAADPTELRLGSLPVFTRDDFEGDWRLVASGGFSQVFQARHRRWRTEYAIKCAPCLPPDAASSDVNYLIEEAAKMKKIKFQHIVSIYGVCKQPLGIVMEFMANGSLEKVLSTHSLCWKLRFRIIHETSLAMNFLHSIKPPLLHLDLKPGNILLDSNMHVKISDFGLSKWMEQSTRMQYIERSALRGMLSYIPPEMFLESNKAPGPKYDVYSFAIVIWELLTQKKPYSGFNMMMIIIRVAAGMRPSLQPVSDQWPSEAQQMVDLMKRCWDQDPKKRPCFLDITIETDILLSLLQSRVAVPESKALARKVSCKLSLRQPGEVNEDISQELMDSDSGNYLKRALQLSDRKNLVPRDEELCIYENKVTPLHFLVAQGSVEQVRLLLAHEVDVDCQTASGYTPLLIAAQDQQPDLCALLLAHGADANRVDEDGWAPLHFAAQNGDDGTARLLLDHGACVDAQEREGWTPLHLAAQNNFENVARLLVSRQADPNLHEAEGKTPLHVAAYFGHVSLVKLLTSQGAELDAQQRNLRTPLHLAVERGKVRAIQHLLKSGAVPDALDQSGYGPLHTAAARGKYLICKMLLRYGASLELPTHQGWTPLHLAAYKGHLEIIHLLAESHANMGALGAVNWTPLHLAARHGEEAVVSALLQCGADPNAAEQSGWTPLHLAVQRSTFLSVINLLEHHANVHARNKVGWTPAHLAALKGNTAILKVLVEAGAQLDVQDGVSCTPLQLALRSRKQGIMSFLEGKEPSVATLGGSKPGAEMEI
The assay can be described thus: Selectivity interaction (KinomeScan (DiscoverX)) EUB0000618a ANKK1. The following applies: at 10 µM.

Chain of BDNF/NT-3 growth factors receptor (Homo sapiens) (Q16620 32-822 limits assumed): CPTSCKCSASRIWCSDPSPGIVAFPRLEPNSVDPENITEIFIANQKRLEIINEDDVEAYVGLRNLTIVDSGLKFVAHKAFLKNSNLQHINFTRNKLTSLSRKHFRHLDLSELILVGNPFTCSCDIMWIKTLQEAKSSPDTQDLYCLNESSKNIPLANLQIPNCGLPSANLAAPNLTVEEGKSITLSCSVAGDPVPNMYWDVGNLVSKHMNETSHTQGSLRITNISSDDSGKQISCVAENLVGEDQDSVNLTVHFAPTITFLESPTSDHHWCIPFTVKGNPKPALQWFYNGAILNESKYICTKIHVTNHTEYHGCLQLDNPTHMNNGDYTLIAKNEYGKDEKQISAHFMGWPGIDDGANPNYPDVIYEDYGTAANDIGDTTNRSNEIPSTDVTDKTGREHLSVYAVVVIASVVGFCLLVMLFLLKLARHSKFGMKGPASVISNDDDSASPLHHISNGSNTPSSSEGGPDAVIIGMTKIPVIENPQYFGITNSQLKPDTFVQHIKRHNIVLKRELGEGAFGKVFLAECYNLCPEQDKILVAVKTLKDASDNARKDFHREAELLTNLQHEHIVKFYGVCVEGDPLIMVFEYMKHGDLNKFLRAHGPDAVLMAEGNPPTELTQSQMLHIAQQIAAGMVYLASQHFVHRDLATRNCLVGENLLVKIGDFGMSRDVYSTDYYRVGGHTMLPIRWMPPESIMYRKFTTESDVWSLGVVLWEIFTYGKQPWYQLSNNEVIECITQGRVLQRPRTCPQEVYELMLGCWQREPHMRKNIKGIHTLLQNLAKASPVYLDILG
Chain of Serine/threonine-protein kinase SBK1 (Homo sapiens) (Q52WX2 whole entry): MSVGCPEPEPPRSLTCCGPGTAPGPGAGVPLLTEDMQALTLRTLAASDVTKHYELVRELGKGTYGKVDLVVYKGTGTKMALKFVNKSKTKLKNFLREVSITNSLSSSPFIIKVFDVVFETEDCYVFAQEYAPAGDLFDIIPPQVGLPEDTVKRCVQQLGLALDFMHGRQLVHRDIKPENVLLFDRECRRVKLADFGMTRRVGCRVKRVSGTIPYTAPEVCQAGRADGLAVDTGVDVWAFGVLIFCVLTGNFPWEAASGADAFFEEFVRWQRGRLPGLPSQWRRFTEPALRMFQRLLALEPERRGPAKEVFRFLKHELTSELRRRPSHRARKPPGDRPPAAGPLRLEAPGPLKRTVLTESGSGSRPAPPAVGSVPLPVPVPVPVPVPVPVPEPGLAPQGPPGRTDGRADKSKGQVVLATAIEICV

On to `CNC(=O)Nc1ccc(-c2nc(N3CC4CCC(C3)O4)c3cnn(C4CCC5(CC4)OCCO5)c3n2)cc1`, for which the % of control in assay [1] turned out to be 78%.

With `O=C(NOC[C@H](O)CO)c1ccc(F)c(F)c1Nc1ccc(I)cc1F`, the % of control in assay [2] and in assay [3] was 100% throughout.

On to `CC[C@@H]1[C@H](F)C(=O)N[C@@H]1COc1nccc2cc(C(N)=O)c(OC)cc12` [ZIMLOVISERTIB], for which the % of inhibition in assay [4] (at 0.01 µM) was 4.9%; in assay [4] (at 0.04 µM), -1.3%; in assay [4] (at 0.2 µM), -1%; in assay [4] (at 1 µM), 20%; in assay [4] (at 5 µM), 64.4%.

Take `C=CC(=O)Nc1cc(-n2c(=O)ccc3cnc4ccc(-c5ccc(NS(C)(=O)=O)cc5)cc4c32)ccc1C`: the % of control in assay [5] (at 1 µM) was determined as 76%; in assay [5] (at 10 µM), 62%; in assay [6] (at 1 µM) it was 62%; in assay [6] (at 10 µM), 78%.

As for `O[C@H]1CC[C@H](Nc2ncc3nc(Nc4c(F)cc(F)cc4F)n([C@H]4CCOC4)c3n2)CC1`, the % of control in assay [7] was 100%.
